From paper PMC12442392, “Identification of a novel ipp gene cluster responsible for 2-isopropylphenol degradation in strain Rhodococcus sp. D-6” (Applied and Environmental Microbiology, 2025)
Numbering of substitutions follows the chain as printed.

Experiments:
[1] = tested on: T1, IppA1A2 (IppA1 with reductase component IppA2); assay: Michaelis-Menten kinetics, nonlinear regression; format: biochemical, Rhodococcus sp. D-6; conditions: 250 µM NADH, 10 µM FAD, 1.2 µM IppA1, 0.4 µM IppA2; 20 mM Tris-HCl pH 7.4, 30°C; read-out: apparent Km
T1 construct: mixed at molar ratio 3:1 in assay; with 2-isopropylphenol monooxygenase, reductase component (flavin reductase)

IppB [2] = biological target: T2, IppB (Rhodococcus sp. D-6, UniProt A0AAU7V3K6); assay: Michaelis-Menten kinetics, nonlinear regression; format: biochemical; conditions: 1.0 µM IppB, 10 µM Fe^2+; 20 mM Tris-HCl pH 7.4, 30°C; read-out: apparent Km
T2 sequence (A0AAU7V3K6 1-190): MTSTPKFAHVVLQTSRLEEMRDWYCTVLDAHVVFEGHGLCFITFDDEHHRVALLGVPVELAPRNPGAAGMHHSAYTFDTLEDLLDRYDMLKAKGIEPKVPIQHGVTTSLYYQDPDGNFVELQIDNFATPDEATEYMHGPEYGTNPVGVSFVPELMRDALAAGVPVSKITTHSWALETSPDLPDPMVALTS

IppB [3] = biological target: T3, IppB (Rhodococcus sp. D-6, UniProt A0AAU7V3K6, H72A, form not given); assay: enzyme activity assay; format: biochemical; conditions: standard assay 200 µM substrate, 1.0 µM enzyme, 10 µM Fe^2+; 20 mM Tris-HCl pH 7.4, 30°C; Fe(II)-binding residue
T3 sequence (A0AAU7V3K6 1-190 H72A): T2 sequence (A0AAU7V3K6 1-190) with H72A

IppB [4] = biological target: T4, IppB (Rhodococcus sp. D-6, UniProt A0AAU7V3K6, E120A, form not given); assay: enzyme activity assay; format: biochemical; conditions: standard assay 200 µM substrate, 1.0 µM enzyme, 10 µM Fe^2+; 20 mM Tris-HCl pH 7.4, 30°C; Fe(II)-binding residue
T4 sequence (A0AAU7V3K6 1-190 E120A): T2 sequence (A0AAU7V3K6 1-190) with E120A

IppB [5] = biological target: T5, IppB (Rhodococcus sp. D-6, UniProt A0AAU7V3K6, H9A, form not given); assay: enzyme activity assay; format: biochemical; conditions: standard assay 200 µM substrate, 1.0 µM enzyme, 10 µM Fe^2+; 20 mM Tris-HCl pH 7.4, 30°C; Fe(II)-binding residue
T5 sequence (A0AAU7V3K6 1-190 H9A): T2 sequence (A0AAU7V3K6 1-190) with H9A

Row | Km [1] [µM] | Km (IppB [2]) [µM] | Structure (SMILES) | activity lost (no turnover) (IppB [3]) | activity lost (no turnover) (IppB [4]) | activity lost (no turnover) (IppB [5])
1 | 60.5 ± 1.27 |  | CC(C)c1ccccc1O [2-isopropylphenol] |  |  | 
2 |  | 29.1 ± 1.54 | CC(C)c1cc(O)ccc1O [2-isopropylhydroquinone] | all variants lost their activity against 2-isopropylhydroquinone | all variants lost their activity against 2-isopropylhydroquinone | all variants lost their activity against 2-isopropylhydroquinone
